By inhibition is commonly meant how much of the control response was suppressed. Broadly, the EC50 is the concentration giving half of the maximal effect. Usually Ki stands for a dissociation constant, usually derived from enzyme kinetics or from competition with a known ligand.

The text below walks through data of publication PMC6691773, “Non-covalent immunoproteasome inhibitors induce cell cycle arrest in multiple myeloma MM.1R cells” (Journal of Enzyme Inhibition and Medicinal Chemistry, 2019).

Assay [1] deals with T1, Human 20S immunoproteasome β2i (Homo sapiens, UniProt P40306).
T1 construct: Human 20S immunoproteasome, isolated from human spleen; purchased Enzo Life Science; host or cells: human spleen (tissue-isolated)
The experiment in a line: 20S immunoproteasome inhibition, β2i trypsin-like activity (Boc-Leu-Arg-Arg-AMC). Type of assay: biochemical. To be noted: 100 µM inhibitor, preliminary screening. As for the experimental part: Human 20S immunoproteasome, isolated from human spleen, was purchased from Enzo Life Science Supplier. The three distinct proteolytic activities of the 20S immunoproteasome were measured by monitoring the hydrolysis of the peptidyl 7-amino-4-methyl coumarin substrates Suc-Leu-Leu-Val-Tyr-AMC (Bachem), Boc-Leu-Arg-Arg-AMC (Bachem) and Ac-Pro-Ala-Leu-AMC (Biomol GmbH) for β5i, β2i and β1i activities of immunoproteasome, respectively. […] Inhibitor solutions were prepared from stocks in DMSO. Each independent assay was performed twice in duplicate in 96-well-plates in a total volume of 200 µL. Fluorescence of the product AMC of the substrate hydrolyses was measured using an Infinite 200 PRO microplate reader (Tecan, Männedorf, Switzerland) at 30 °C with a 380 nm excitation filter and a 460 nm emission filter.
Human 20S immunoproteasome was incubated at 30 °C at a final concentration of 0.004 mg/mL with test compound present at variable concentrations. The reaction buffer consisted of 50 mM Tris HCl, pH 7.4, 50 mM NaCl, 0.5 mM EDTA III, 0.03% SDS. Product release from substrate hydrolysis (50 µM) was monitored continuously over a period of 10 min.

A further assay deals with MM.1R cells. In words: Cytotoxicity by MTT assay. Type of assay: cell-based. To be noted: Homo sapiens, 24 h, dexamethasone-resistant cells, read-out: EC50 against MM.1R cells. The protocol: To test the efficacy of 5 and 6 a cell viability assay was performed. Human multiple myeloma cells (MM.1R; ATCC® CRL-2975™) resistant to dexamethasone were purchased by LGC Standards (Milan, Italy) and cultured under standard conditions (37 °C, 5% CO2) with standard RPMI 1640 medium added with L-glutamine, 10% foetal bovine serum, and 1% antibiotic mixture (penicillin/streptomycin) in sterile flasks. Cells were grown for a week before the assay. Compounds 5–6 were tested at different doses (1–10-20–40-80–100 µM) in a 96 well plate for 24 h to determine the cytotoxic effect. […] At the end of the 5 h, the medium was removed and the insoluble formazan crystals were dissolved with 200 µl/well of dimethyl sulphoxide (DMSO), and the absorbance was read at 540 and 620 nm. The difference between the two absorbance values was used to calculate mean for each replicate and further assess cytotoxicity. […] Results were expressed as % of vitality and reported as means and SEM.
To test the efficacy of compounds 5–6 in a cell system, we used dexamethasone-resistant human multiple myeloma cells (MM.1R), which are less responsive to chemotherapy, and are representative of patients in the later stages of the disease, as previously described. […] MM.1R cell survival was determined by the tetrazolium dye MTT assay and untreated cells were used as reference and assumed as the 100% of vital cells (Figure 2).

The subject of a further assay is ubiquitin in MM.1R cells. The experiment in a line: Ubiquitin accumulation by western blot. Type of assay: cell-based, human. The note with it: 24 h, versus ctrl. The protocol: (§1) To test the inhibitory effect on proteasome activity, ubiquitin, cyclins, CDK, NF-kB and pNF-kB were assessed by western blot. […] After 24 h, cells were collected and protein extracted for analysis. Protein extraction and western blot analysis were performed as previously described.
(§2) Briefly, a total of 15 µg of proteins were loaded in each lane and specific antibodies were used to detect ubiquitin (Abcam, Cambridge, UK), cyclin A, cyclin B, cyclin D1, CDK1, CDK4/6, NF-kB, pNF-kB, PARP, and Caspase-3 (Cell Signaling, Danvers, MA, United States). Beta actin (Cell Signaling), was used on stripped blots as loading control. The images have been acquired using a dedicated software and densitometric data were expressed as integrated intensity and reported as means and SEM.
To test the efficacy of these compounds in inhibiting ubiquitinated protein degradation, a western blot analysis of ubiquitin was performed (Figure 3). In fact, considering that proteasome inhibition leads the cells to accumulate ubiquitinated protein into the cytoplasm, we decided to assess the changes in levels of total ubiquitinated proteins indirectly, by detecting changes in total ubiquitin levels, by western blot analysis. […] It is worth noting that these changes were dose-dependent, this adding an additional level of confidence in our experimental approach.
On the technique in general: In western blotting, separated proteins are transferred to a membrane and probed.

A further assay deals with cyclin A in MM.1R cells. In words: Cyclin A level by western blot. The class given is cell-based, human. To be noted: 24 h, 15 and 20 µM. The protocol:
as §1, §2

The next assay concerns cyclin D1 in MM.1R cells. In words: Cyclin D1 level by western blot. Type of assay: cell-based, human. The note with it: 24 h, 20 µM. As for the experimental part:
as §1, §2

In a further assay the test system is pNF-kB in MM.1R cells. The experiment in a line: pNF-kB level by western blot. Type of assay: cell-based, human. To be noted: 24 h. The protocol:
as §1, §2

The next assay concerns PARP in MM.1R cells. The experiment in a line: PARP expression by western blot. The class given is cell-based, human. The note with it: 24 h. As for the experimental part: as §1, §2
For another assay, the system named is Caspase-3 in MM.1R cells. In words: Caspase-3 expression by western blot. Type of assay: cell-based, human. To be noted: 24 h. The protocol: as §1, §2
The target of assay [2] is β5c subunit of constitutive proteasome. On the set-up: method as in PMID 24561716, PMID 24946214. The note with it: ChT-L activity of constitutive proteasome; read-out: Ki against β5c subunit; cited from earlier work.
Assay [3] addresses Human 20S immunoproteasome β1i (Homo sapiens, UniProt P28065). In words: 20S immunoproteasome inhibition, β1i chymotrypsin-like activity (Ac-Pro-Ala-Leu-AMC).
Description: (§3) Human 20S immunoproteasome was incubated at 30 °C at a final concentration of 0.004 mg/mL with test compound present at variable concentrations. The reaction buffer consisted of 50 mM Tris HCl, pH 7.4, 10 mM NaCl, 25 mM KCl, 1 mM MgCl2, 0.03% SDS. Product release from substrate hydrolysis (50 µM) was monitored continuously over a period of 10 min.
Assay [4] has as its target Human 20S immunoproteasome β5i (Homo sapiens, UniProt P28062). In words: 20S immunoproteasome inhibition, β5i chymotrypsin-like activity (Suc-Leu-Leu-Val-Tyr-AMC). The note with it: for inhibition at 100 µM: read-out: inhibition of one or two ChT-L activities.
Description: as §3
A further assay has as its system cyclin B in MM.1R cells. In words: Cyclin B level by western blot. The class given is cell-based, human. To be noted: 24 h, 20 µM. The protocol:
as §1, §2

The test system of a further assay is CDK1 in MM.1R cells. In words: CDK1 level by western blot. The class given is cell-based, human. To be noted: 24 h, p < .05. The protocol: as §1, §2
Another assay concerns CDK4/6 in MM.1R cells. The experiment in a line: CDK4/6 level by western blot. The note with it: 24 h, p < .0005. The class given is cell-based, human. As for the experimental part: as §1, §2
The next assay concerns NF-kB in MM.1R cells. In words: NF-kB level by western blot. The class given is cell-based, human. To be noted: 24 h. As for the experimental part: as §1, §2

Structures are written as SMILES.

Turning to `CC(C)CCNC(=O)Cn1cc(Br)c2ncccc2c1=O` [Compound 5], the inhibition at 100 µM in assay [1] was 19%; in [3] (read-out: % of inhibition at 100 µM β1i), 36%; in [4], greater than 70%. For the same compound, in the assay on MM.1R cells, the EC50 was found to be 21.2 µM. In addition, the ubiquitin accumulation result in the assay with ubiquitin in MM.1R cells (all tested concentrations) was “no significant increase”. In addition, in the assay with cyclin A in MM.1R cells, the “cyclin A level” value is recorded as “No trend of reduction”. Also, the “cyclin D1 level” value in the assay with cyclin D1 in MM.1R cells is given as “able to reduce”. Also, in the assay on pNF-kB in MM.1R cells, the pNF-kB level result is given as “paradoxical increase”. In addition, the PARP expression entry with PARP in MM.1R cells is “No significant difference”. The Caspase-3 expression entry in the assay with Caspase-3 in MM.1R cells is on record as “No significant difference”. The inhibitory constant (Ki) is 0.56 µM in assay [2] and 6.04 ± 0.29 µM in [4].

Regarding `CC(C)CCNC(=O)Cn1ccc2ccc(Br)cc2c1=O` [Compound 6], the inhibition at 100 µM in assay [1] is 24%; in [4], greater than 70%. For the same compound, in the assay with MM.1R cells, the EC50 turned out to be 17.8 µM. Also, the ubiquitin accumulation entry with ubiquitin in MM.1R cells (20 µM) is recorded as “significant increase”. The “cyclin A level” value in the assay with cyclin A in MM.1R cells is reported as “very significant (p < .005) reduction”. In addition, in the assay on cyclin B in MM.1R cells, the “cyclin B level” value is “consistent reduction”. Further, the “cyclin D1 level” value in the assay with cyclin D1 in MM.1R cells was “consistent reduction”. Moreover, the CDK-1 level entry in the assay on CDK1 in MM.1R cells was “changed”. Also, the CDK4/6 level result in the assay with CDK4/6 in MM.1R cells is “changed”. The NF-kB level result in the assay with NF-kB in MM.1R cells is “dose-dependent increase”. Also, the pNF-kB level result in the assay with pNF-kB in MM.1R cells is “trend of reduction”. The PARP expression result with PARP in MM.1R cells is “No significant difference”. Also, in the assay on Caspase-3 in MM.1R cells, the Caspase-3 expression entry was “No significant difference”. Also, the values for the inhibition constant Ki in assay [2], in assay [3] and in [4] were 2.34 µM, 4.9 ± 0.04 µM and 4.39 ± 0.18 µM, respectively.

As to `CC(C)CCNC(=O)Cn1ccc2ncccc2c1=O` [Compound 1], the Ki in assay [3] worked out at 4.9 µM; in assay [4], 4.39 µM.

With `CC(C)CCNC(=O)Cn1ccc2c(c1=O)CCCN2` [Compound 3], in [2], the Ki is 10.5 µM.
